Results on two compounds are retold here after patent US11693005B2, “Methods for identifying treatments that reduce the actions of substances of abuse and addiction” (Florida Atlantic University Board of Trustees, priority 2018, dated 2023).

“Also recorded” adds a separate entry of the source.

One test addresses T1, mouse MBLAC1 (Mus musculus, UniProt Q8BWY4).
T1 construct: mouse and human Mblac1 cDNAs were subcloned into pcDNA5/FRT/TO vector; expressed in transfected cells; cell lysate
T1 sequence (Q8BWY4 1-260): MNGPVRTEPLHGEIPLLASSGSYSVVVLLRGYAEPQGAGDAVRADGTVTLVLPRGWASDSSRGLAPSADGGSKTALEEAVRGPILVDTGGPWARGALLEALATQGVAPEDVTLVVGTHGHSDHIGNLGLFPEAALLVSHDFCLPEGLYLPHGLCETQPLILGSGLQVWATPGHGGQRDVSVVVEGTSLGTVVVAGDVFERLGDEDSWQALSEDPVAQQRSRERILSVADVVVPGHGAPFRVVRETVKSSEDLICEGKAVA
Nature of the test: Backscattering interferometry (BSI) binding of unlabeled Cef to lysates of TET-induced T-REx cells expressing mouse MBLAC1. As to conditions: 5 μM and 50 μM. The protocol:
(§1) HEK Flp-In T-REx-293 cells (T-REx) expressing mouse or human MBLAC1 proteins were generated per manufacturer's (ThermoFisher, Waltham, Mass., USA) instructions. Briefly, mouse and human Mblac1 cDNAs were subcloned into pcDNA5/FRT/TO vector and then co-transfected with pOG44 plasmid (encoding Flp recombinase) by lipid based transfection into Flp-In T-REx-293 cells using TransIT-LT1 (Mirus, Madison, Wis.). Stable integrants were isolated following selection with 100 μg/ml hygromycin. Expression of MBLAC1 protein was induced by addition of 1 μg/mL tetracycline (TET) to the media. […]
(§2) To assess the binding of unlabeled Cef with MBLAC1 in cell and tissue lysates, BSI was utilized. […] RI changes are quantified by comparing fringe shifts between test and reference samples.
(§3) Lysates for BSI contained Cef at concentrations of 0 μM, 5 μM, and 50 μM and concentrations of either 300 μg/mL (mouse cell lysates) or 100 μg/mL (human cell lysates and mouse brain lysates) protein. […] To obtain BSI signals, the sample with 0 μM Cef was injected into the channel in a stop-flow manner using a vacuum and allowed to reach temperature and pressure equilibrium (˜10 sec) at which point the phase value (BSI signal) was measured for 20 sec. Specific BSI signal was determined by subtracting Cef only signal from Cef-lysate signals. […]

Test [1] deals with MBLAC1 WT and MBLAC1 KO mice. Nature of the test: Effect of repeated Cef on cocaine-induced locomotion, open field. It is filed as in vivo, mouse. As to conditions: Cef 200 mg/kg IP once daily 10 days, cocaine 10 mg/kg 24 h later. The protocol: Animals: All mice were used in accordance with protocols approved by the Florida Atlantic University Institutional Animal Care and Use Committee. Mice were group-housed on a 12 h/12 h light/dark cycle and given ad libitum access to food and water. Breeding was accomplished with mating of heterozygous males with heterozygous females. Male and female mice 11-13 weeks old at the start of the experiment were used in testing the effects of repeated ceftriaxone on response to cocaine in the open field assay. Data from males and females were combined.
Repeated Cef treatment/acute cocaine administration: MBLAC1 wild-type (WT, MBLAC1^+/+) and knockout mice (MBLAC1^−/−) were used in this experiment. Mice were injected IP once daily for 10 days with 200 mg/kg ceftriaxone (CEF) or saline. Twenty-four hours following the last CEF injection, mice were injected with 10 mg/kg cocaine or saline followed immediately by testing in open field activity chambers (Med Associates, Fairfax, Vt.) for 60 minutes. Locomotor activity was evaluated by photocells in the X, Y and Z dimensions. Horizontal beam breaks, vertical beam breaks, and repetitive movements were recorded and measures, including distance traveled, vertical rearing and stereotypic counts, were calculated. Data were analyzed in 5 min time bins within session, and for the first 30 min following cocaine injection. Data were analyzed by two-way ANOVA repeated measures, with time bin as the repeated measure, or by two-way ANOVA for 30 min cumulated data. At the end of behavior, mice were euthanized by CO2.
The methods were performed essentially as described in Tallarida et al. Neurosci Lett vol. 556, p. 155-159, 2013.

Another test has as its target T2, human MBLAC1 (Homo sapiens, UniProt A4D2B0).
T2 construct: mouse and human Mblac1 cDNAs were subcloned into pcDNA5/FRT/TO vector; expressed in transfected cells; cell lysate
T2 sequence (A4D2B0 1-266): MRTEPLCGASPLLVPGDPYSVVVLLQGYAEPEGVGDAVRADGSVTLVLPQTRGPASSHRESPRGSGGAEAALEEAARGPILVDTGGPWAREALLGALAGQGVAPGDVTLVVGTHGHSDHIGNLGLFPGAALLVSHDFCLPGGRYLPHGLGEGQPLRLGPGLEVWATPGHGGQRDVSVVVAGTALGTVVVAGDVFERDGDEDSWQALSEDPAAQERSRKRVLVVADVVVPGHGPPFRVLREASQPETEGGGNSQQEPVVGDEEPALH
Nature of the test: Backscattering interferometry (BSI) binding to lysates of TET-induced T-REx cells expressing human MBLAC1. The note with it: 5 μM and 50 μM. The protocol:
as §1, §2, §3

The subject of test [2] is MBLAC1. Nature of the test: MBLAC1 pulldown with Cef-conjugated CN-Br Sepharose beads, competition by free Cef. It is filed as binding.
For test [3], the target named is T3, MBLAC1 (Mus musculus, UniProt Q8BWY4).
T3 construct: from tissue; host or cells: mouse (C57BL/6J) frontal cortex, 100,000 x g supernatant
T3 sequence (Q8BWY4 1-260): T1 sequence (Q8BWY4 1-260)
Nature of the test: BSI binding to mouse frontal cortex lysates, with and without MBLAC1 immunodepletion. The protocol:
Wild type C57BL/6J mice (Jackson Labs, Bar Harbor, Me.) were rapidly decapitated and frontal cortex was dissected. Tissue was homogenized in ice cold 20 mM HEPES buffer (pH 7.4) using a Dounce homogenizer (Wheaton, Millville, N.J.), and then sonicated (F60 sonic dismembrator, Fisher Scientific, Waltham, Mass.) using 5, 1 sec pulses. Lysates were then centrifuged at 100,000×g for 30 min. Supernatants were collected, diluted with 2× lysis buffer (40 mM HEPES, 220 mM KCl, 20 mM NaCl, 4 mM MgCl, 10 mM KH2PO4, 500 μM ZnSO4) and protein concentration determined (BCA Protein Assay, ThermoFisher, Waltham, Mass.). […]
as §2, §3

For `CC(=O)OCC1=C(C(=O)O)N2C(=O)[C@@H](NC(=O)CCC[C@@H](N)C(=O)O)[C@H]2SC1` [CephC, cephalosporin C], at mouse MBLAC1, the BSI binding signal result is given as “non-significant reduction in BSI signal; also recorded: a significant CephC BSI signal (FIG. 3D) was not seen”.

For the compound `CO/N=C(\C(=O)N[C@@H]1C(=O)N2C(C(=O)O)=C(CSc3nc(=O)c(=O)[nH]n3C)CS[C@H]12)c1csc(N)n1` [Cef, ceftriaxone], the “Effect on cocaine-induced locomotion (ambulatory distance, first 30 min)” value is given as “no ability to attenuate cocaine actions” in test [1] (MBLAC1 KO mice); “had no effect on the response to cocaine” in test [1] (MBLAC1 KO mice, listed as CEF); “the locomotor activating effects of cocaine were lost” in test [1] (MBLAC1 WT mice); “completely blocked the effects of cocaine” in test [1] (MBLAC1 WT mice, listed as CEF). In addition, the BSI binding signal entry is listed as “concentration-dependent, heat-sensitive BSI binding signals; also recorded: significant, dose-dependent BSI signals” at human MBLAC1; “concentration-dependent, heat-sensitive BSI binding signals; also recorded: significant, dose-dependent BSI signals; also recorded: Significant dose-dependent BSI signals” on mouse MBLAC1; “eliminated Cef binding activity; also recorded: the Cef binding signal was abolished” at MBLAC1 [3] (mouse frontal cortex lysate immunodepleted of MBLAC1 with antibody #80); “shows binding signal with Cef” at MBLAC1 [3] (mouse frontal cortex lysate, 5 μM and 50 μM). Moreover, the “Mean reduction in MBLAC1 binding to immobilized Cef” value in the test on MBLAC1 [2] (50 μM free Cef preincubated with lysate, n=6) turned out to be 52.4±9.3%. Further, the “MBLAC1 capture by Cef-conjugated beads” value in the test with MBLAC1 [2] (lysates preincubated with Cef 50 μM) is given as “significantly diminished MBLAC1 capture”.
